Article PMC8213153 (PLoS ONE, 2021)
In brackets after ≈: the same amount, converted by molar mass. Like-named read-outs stand apart in the source and are kept apart here.

Legend:
SARS-CoV-2 virus = assay: microbe, parasite or virus in culture; assay type: cell-based; settings: for Drug concentration that produced an undetected virus copy number: at 24, 48, and/or 72 hours' incubation; for IC50: Severe acute respiratory syndrome coronavirus 2, Vero
[1] = cited from earlier work
IL-6 = IL-6 level of virus-infected Vero cells (ELISA); assay type: cell-based
Procedure: (§1) To enable measurement of IL-6, IL-10 and TNF-α levels, the culture medium of the treated cells was collected in sterile micro-tubes and centrifuged at 3,500 rpm for 20 minutes. The supernatants were carefully collected and diluted with aquadest at a 1:5 volume ratio and vortexed until homogenous. The samples were deposited onto a well-plate, added to ELISA reagents (Bioassay Technology Laboratory, Shanghai, China), and incubated at 37°C for 60 minutes. Reagent substrate solution was then added to the well and incubated for ten minutes at 37°C. The samples were measured for antigen concentration using the optical density (OD) plotted into the standard curves of IL-6, IL-10, and TNF-α.

[2] = Cytotoxicity (MTT) assay of single and dual combinatory drugs; assay type: cell-based; settings: human; for viability at 48 h, 0.2 μg/mL / viability at 48 h, 2 μg/mL / viability at 48 h, 10 μg/mL / viability at 48 h, 100 μg/mL / viability at 48 h, 400 μg/mL: read-out: Cell Viability (%)
Procedure: Each tablet containing drugs was triturated and mixed until homogenous. Approximately 50 mg equivalent mass of drugs were weighed and added to dimethyl sulfoxide in order to solubilize the drugs. The suspension was sonicated in a water bath for 15 minutes before being added to Rosewell Park Memorial Institute (RPMI) media, sonicated again and vortexed to mix it until homogenous. The suspension was then filtered through a polycarbonate membrane with a pore size of 0.45 μm and then a pore size of 0.22 μm under aseptic conditions. The filtrate was mixed with 10% foetal bovine serum and penicillin streptomycin before being vortexed to produce a homogenous mixture to be used as a stock solution. The samples were prepared by diluting the stock solution of each drug with RPMI complete media at an appropriate level of dilution to produce a determined concentration. The dual combinatory drugs mixtures were prepared by mixing appropriate amounts of two drug stock solutions in order to produce a final concentration at the required level. The combinatory drugs were evaluated at both constant and non-constant ratios to evaluate their effects on the cytotoxicity, including; antagonistic, synergistic, or additive. A constant ratio of the mixture was achieved by adding drug solutions at the same ratio, thereby increasing each drug concentration, to produce dose escalation. In contrast, at a non-constant ratio, a fixed determined concentration of drug was added to increased doses of other drug solution in order to produce different levels of drug concentration.
The cytotoxic concentration (CC50) of drugs was performed by means of MTT assay at the Stem Cell Research and Development Center, Universitas Airlangga using human umbilical cord mesenchymal stem cells which had been obtained from human placenta tissue as approved by the Ethical Committee of Universitas Airlangga Hospital (Certificate number 101/KEH/2019 dated January 10, 2019). The cells were prepared as the primary cell culture and used for the cytotoxicity assay because of their sensitivity to chemicals. Cells were seeded into 96-well microplates at a concentration of 1x10^3 cells/well in 100 μL Alpha Minimum Essentials Medium (α-MEM, Gibco, USA) supplemented with 10% foetal bovine serum, 1% penicillin-streptomycin and 1% amphotericin-B. The plates were then incubated in a CO2 incubator at 37°C with 5% CO2 for 24 hours, at which point, the supernatant was replaced with α-MEM containing drugs at each concentration and incubated for a further 48 hours. Approximately 25μL of 3-(4,5-Dimethylthiazol-2-yl)-2,5-diphenyl tetrazolium-bromide (MTT) reagent at a concentration of 5mg/mL was subsequently added to each well and incubated for four hours at 37°C with 5% CO2. Purple formazan crystals were formed and observed under an inverted microscope. Dimethyl sulfoxide was added to each well with the complete solubilisation of formazan crystals subsequently being observed. The greater the number of formazan crystals formed, the lower the toxicity of the samples which were read for optical density of formazan using a multi reader at a measurement wavelength of 595 nm (Promega Glomax, USA). The CC50 value was analyzed by CompuSyn software (the ComboSyn Inc., accessed from www.combosyn.com).
In this study, the cytotoxicity assay was evaluated for single and dual combinatory drugs during a period of 48 hours of drug incubation. This assay was intended to evaluate the toxicity of dual combinatory drugs on normal cells. The combination ratios were calculated taking into consideration the usual therapeutic doses and plasma peak concentrations of the drugs. To determine this cytotoxicity, the drugs were mixed at both constant and non-constant ratios.

TNF-α = TNF-α level of virus-infected Vero cells (ELISA); assay type: cell-based
Procedure: as §1

IL-10 = IL-10 level of virus-infected Vero cells (ELISA); assay type: cell-based
Procedure: as §1

[3] = FAVIPIRAVIR-AZITHROMYCIN series
[4] = HYDROXYCHLOROQUINE-FAVIPIRAVIR series

SMILES: CC[C@H]1OC(=O)[C@H](C)[C@@H](O[C@H]2C[C@@](C)(OC)[C@@H](O)[C@H](C)O2)[C@H](C)[C@@H](O[C@@H]2O[C@H](C)C[C@H](N(C)C)[C@H]2O)[C@](C)(OC)C[C@@H](C)C(=O)[C@H](C)[C@@H](O)[C@]1(C)O [CLA, Clarithromycin]
- Virus Titer (SARS-CoV-2 virus; 0.5 μg/mL, 24-h): 38.47 viral protein fg/mL
- Virus Titer (SARS-CoV-2 virus; 8 μg/mL, 24-h): 38.03 viral protein fg/mL
- Virus Titer (SARS-CoV-2 virus; 8 μg/mL, 48-h): 39.09 viral protein fg/mL
- Virus Titer (SARS-CoV-2 virus; 8 μg/mL, 72-h): 37.46 viral protein fg/mL
- Drug concentration that produced an undetected virus copy number (SARS-CoV-2 virus; MoI 0.04): 8 µg/mL
- IC50 (SARS-CoV-2 virus; 24h, MoI 0.04): 4.6 µg/mL (≈ 6.15 µM)
- IC50 (SARS-CoV-2 virus; 48h, MoI 0.04): 0.6 µg/mL (≈ 0.802 µM)
- IC50 (SARS-CoV-2 virus; 72h, MoI 0.04): 0.9 µg/mL (≈ 1.2 µM)
- Peak Plasma Concentration ([1]; oral 250 mg Clarithromycin twice a day): 1 µg/mL
- Peak Plasma Concentration ([1]; oral 500 mg Clarithromycin twice a day): 2.41 µg/mL
- IL-6 (IL-6; 0.5 μg/mL, 24-h): 15.61 ± 0.85 ng/L
- IL-6 (IL-6; 0.5 μg/mL, 48-h): 28.56 ± 0.62 ng/L
- IL-6 (IL-6; 0.5 μg/mL, 72-h): 48.22 ± 0.35 ng/L
- IL-6 (IL-6; 4 μg/mL, 24-h): 14.85 ± 0.51 ng/L
- IL-6 (IL-6; 4 μg/mL, 48-h): 30.07 ± 0.09 ng/L
- IL-6 (IL-6; 4 μg/mL, 72-h): 51.13 ± 0.94 ng/L
- IL-6 (IL-6; 8 μg/mL, 24-h): 15.61 ± 0.57 ng/L
- IL-6 (IL-6; 8 μg/mL, 48-h): 34.67 ± 0.50 ng/L
- IL-6 (IL-6; 8 μg/mL, 72-h): 64.93 ± 2.50 ng/L
- IL-6 (IL-6; 1, 4, 8 μg/mL, 24, 48, 72h): ↘↘ (1, 4, 8 μg/mL; 24, 48, 72h)
- IL-6 (in words) (IL-6; Table 5): reduced
- CC50 at 48 h ([2]; LOPIRITO-CLA experiment (Fig 5), 48 hours, CompuSyn, n = 3, read-out: CC50): 2280 µg/mL
- viability at 48 h, 0.2 μg/mL ([2]; LOPIRITO-CLARITHROMYCIN series): 134%
- viability at 48 h, 2 μg/mL ([2]; LOPIRITO-CLARITHROMYCIN series): 92.6%
- viability at 48 h, 10 μg/mL ([2]; LOPIRITO-CLARITHROMYCIN series): 79.4%
- viability at 48 h, 100 μg/mL ([2]; LOPIRITO-CLARITHROMYCIN series): 92.6%
- viability at 48 h, 400 μg/mL ([2]; LOPIRITO-CLARITHROMYCIN series): 74.3%
- TNF-α (TNF-α; 0.5 μg/mL, 24-h): 20.39 ± 0.57 pg/mL
- TNF-α (TNF-α; 0.5 μg/mL, 48-h): 426.37 ± 1.40 pg/mL
- TNF-α (TNF-α; 0.5 μg/mL, 72-h): 612.06 ± 1.54 pg/mL
- TNF-α (TNF-α; 4 μg/mL, 24-h): 100.04 ± 1.44 pg/mL
- TNF-α (TNF-α; 4 μg/mL, 48-h): 404.07 ± 0.10 pg/mL
- TNF-α (TNF-α; 4 μg/mL, 72-h): 609.56 ± 0.14 pg/mL
- TNF-α (TNF-α; 8 μg/mL, 24-h): 43.92 ± 1.13 pg/mL
- TNF-α (TNF-α; 8 μg/mL, 48-h): 382.62 ± 0.86 pg/mL
- TNF-α (TNF-α; 8 μg/mL, 72-h): 609.56 ± 0.14 pg/mL
- TNF-α (TNF-α; 24, 48, and 72 hours, cell without concentration): No effects
- TNF-α levels (in words) (TNF-α; Table 5): no effects
- IL-10 (IL-10; 0.5 μg/mL, 24-h): 36.80 ± 1.13 pg/mL
- IL-10 (IL-10; 0.5 μg/mL, 48-h): 105.49 ± 1.32 pg/mL
- IL-10 (IL-10; 0.5 μg/mL, 72-h): 507.18 ± 0.00 pg/mL
- IL-10 (IL-10; 4 μg/mL, 24-h): 36.80 ± 0.08 pg/mL
- IL-10 (IL-10; 4 μg/mL, 48-h): 58.15 ± 1.41 pg/mL
- IL-10 (IL-10; 4 μg/mL, 72-h): 498.75 ± 0.00 pg/mL
- IL-10 (IL-10; 8 μg/mL, 24-h): 24.75 ± 0.58 pg/mL
- IL-10 (IL-10; 8 μg/mL, 48-h): 79.10 ± 0.00 pg/mL
- IL-10 (IL-10; 8 μg/mL, 72-h): 445.89 ± 0.07 pg/mL
- IL-10 (IL-10; 8 μg/mL, 48h): ↗↗ (8 μg/mL; 48h)
- IL-10 levels (in words) (IL-10; Table 5): increased

SMILES: NC(=O)c1nc(F)c[nH]c1=O [FAVI, Favipiravir]
- Virus Titer (SARS-CoV-2 virus; 10 μg/mL, 48-h): 37.37 viral protein fg/mL
- Virus Titer (SARS-CoV-2 virus; 15 μg/mL, 24-h): 38.87 viral protein fg/mL
- Drug concentration that produced an undetected virus copy number (SARS-CoV-2 virus; MoI 0.04): 37.5 µg/mL
- IC50 (SARS-CoV-2 virus; 24h, MoI 0.04): 9.6 µg/mL (≈ 61.1 µM)
- IC50 (SARS-CoV-2 virus; 48h, MoI 0.04): 18.6 µg/mL (≈ 118 µM)
- IC50 (SARS-CoV-2 virus; 72h, MoI 0.04): < 10 µg/mL
- Results (virus detection) (SARS-CoV-2 virus; at the drug concentration of the same line of Table 4, MoI 0.04): 24, 48, 72h virus still detected with decreasing number
- IL-6 (IL-6; 10 μg/mL, 24-h): 14.09 ± 1.53 ng/L
- IL-6 (IL-6; 10 μg/mL, 48-h): 37.28 ± 0.37 ng/L
- IL-6 (IL-6; 10 μg/mL, 72-h): 60.21 ± 0.49 ng/L
- IL-6 (IL-6; 15 μg/mL, 24-h): 22.18 ± 1.09 ng/L
- IL-6 (IL-6; 15 μg/mL, 48-h): 39.75 ± 1.67 ng/L
- IL-6 (IL-6; 15 μg/mL, 72-h): 68.61 ± 1.04 ng/L
- IL-6 (IL-6; to 100 μg/mL, 48h): ↘↘ (to 100 μg/mL; 48h)
- CC50 at 48 h ([2]; CC50): > 400 µg/mL
- viability at 48 h, 0.2 μg/mL [2, 3]: 105%
- viability at 48 h, 2 μg/mL [2, 3]: 104%
- viability at 48 h, 10 μg/mL [2, 3]: 109%
- viability at 48 h, 100 μg/mL [2, 3]: 110%
- viability at 48 h, 400 μg/mL [2, 3]: 126%
- viability at 48 h, 0.2 μg/mL [2, 4]: 92.5%
- viability at 48 h, 2 μg/mL [2, 4]: 71.9%
- viability at 48 h, 10 μg/mL [2, 4]: 72.4%
- viability at 48 h, 100 μg/mL [2, 4]: 66.2%
- viability at 48 h, 400 μg/mL [2, 4]: 66.8%
- TNF-α (TNF-α; 10 μg/mL, 24-h): 3.09 ± 1.23 pg/mL
- TNF-α (TNF-α; 10 μg/mL, 48-h): 416.51 ± 1.28 pg/mL
- TNF-α (TNF-α; 10 μg/mL, 72-h): 711.37 ± 0.70 pg/mL
- TNF-α (TNF-α; 15 μg/mL, 24-h): 98.18 ± 1.55 pg/mL
- TNF-α (TNF-α; 15 μg/mL, 48-h): 467.47 ± 3.11 pg/mL
- TNF-α (TNF-α; 15 μg/mL, 72-h): 725.48 ± 3.51 pg/mL
- TNF-α (TNF-α; 10 ppm, 24h): ↘↘ (10 ppm; 24h)
- IL-10 (IL-10; 10 μg/mL, 24-h): 31.38 ± 1.80 pg/mL
- IL-10 (IL-10; 10 μg/mL, 48-h): 125.32 ± 1.57 pg/mL
- IL-10 (IL-10; 10 μg/mL, 72-h): 465.82 ± 0.57 pg/mL
- IL-10 (IL-10; 15 μg/mL, 24-h): 27.97 ± 0.29 pg/mL
- IL-10 (IL-10; 15 μg/mL, 48-h): 100.89 ± 1.28 pg/mL
- IL-10 (IL-10; 15 μg/mL, 72-h): 411.24 ± 0.24 pg/mL
- IL-10 (IL-10; 10, 15 μg/mL, 48, 72h): ↗↗ (10, 15 μg/mL; 48, 72h)
